Test results from ChEMBL document CHEMBL6096735, “Exploring the Ascorbate Requirement of the 2-Oxoglutarate-Dependent Dioxygenases” (J Med Chem, 2025).

Biological target: Methylcytosine dioxygenase TET2 (Homo sapiens) (UniProt Q6N021)
Experiment: Binding affinity to TET2 (unknown origin) assessed as binding constant

Kb	Structure (SMILES)
8.7 10^3/M	O=C1O[C@H]([C@H](O)CO)C(O)=C1O
8.7 10^3/M	O=C1O[C@H]([C@@H](O)CO)C(O)=C1O
